Reference: patent publication US6461997B1, “Triazole sulfones having herbicidal activity” (Monsanto Technology LLC, priority 1999, dated 2002)

Legend:
ALOMY (blackgrass) = assay: Post-emergence herbicidal activity, cool season; assay type: in vivo, Alopecurus myosuroides; settings: abraded plants sprayed at 300, 100, 30 and 10 g/ha; about 14 days after treatment
Method: In another set of tests, the post-emergence activity of compounds of this invention was evaluated on the cool season species listed above. The following procedure was used.
A pre-prepared topsoil mixture (described above) was placed in a pot and compacted to a depth of 1.0 to 1.25 cm from the top of the pot. Seeds of each of several monocotyledonous and dicotyledonous annual plant species were placed on top of the soil. The seeds were covered with a mixture of 50% topsoil and 50% Rediearth™ in sufficient quantity to level-fill the pots. The pots were then placed on a greenhouse bench and subirrigated as needed.
When plants growing from the seeds had emerged and reached a suitable growth stage for post-emergence treatment, typically 9 to 14 days after planting, above-ground parts of the plants were subjected to a pre-treatment involving abrasion to create greater opportunity for foliar uptake of subsequently applied compounds. Abrasion was performed using garnet 200w particles applied with a Sears Craftsman hand-held sandblaster operated at approximately 850 kPa (50 psig) pressure.
A known amount of each test compound dissolved or suspended in an appropriate organic solvent was diluted with a 50:50 mix of acetone and water and applied to the plants by spraying with a standard spray nozzle in a spray volume of […] at a spray pressure of 511 kPa (30 psig). Only the compounds of Examples 1, 8-15 and 17-22 were included in post-emergence tests. Application rates for these compounds were 300, 100, 30 and 10 g/ha. Control plants were abraded but not sprayed.
After treatment the plants were placed in a greenhouse with an 18/13° C. day/night temperature regime and were subsequently watered as needed for growth. Approximately 14 days after treatment, the plants were observed and herbicidal efficacy recorded as percent inhibition by comparison with control plants. GR80 values were assigned for each compound as described above for the pre-emergence tests.

CONAR (field bindweed) [1] = assay: Pre-plant incorporated (PPI) herbicidal activity, warm season; assay type: in vivo, Convolvulus arvensis; settings: GR80 = lowest tested rate with 80% or greater inhibition, approx. 14 days after treating, 30/21° C.
Method: (§1) In another set of tests, the pre-plant incorporated (PPI) activity of compounds of this invention was evaluated on the same species as for the pre-emergence tests described above. In the PPI tests the following procedure, designed to simulate PPI application, was used.
(§2) A pre-prepared topsoil mixture (described above) was placed in a pot and compacted to a depth of 1.0 to 1.25 cm from the top of the pot. Seeds of each of several monocotyledonous and dicotyledonous annual plant species were placed on top of the soil. A sufficient quantity of soil to cover the seeds and level fill the pot was weighed into an open container. A known amount of the test compound was dissolved or suspended in an organic solvent and applied by spraying to this cover soil. The cover soil was thoroughly mixed to distribute the test compound throughout the cover soil, and was then applied as a cover layer over the seeds. Untreated soil was used as a cover layer for control pots. After treatment the plants were placed in a greenhouse where they received 0.64 cm of overhead irrigation. All subsequent watering consisted of a light overhead mist and/or subirrigation as needed for germination and growth. Tables 9 and 10 below relate to warm season plant species which were placed after pre-emergence treatment in a greenhouse with a 30/21° C. day/night temperature regime. Tables 11 and 12 below relates to cool season plant species placed after pre-emergence treatment in a greenhouse or growth chamber with an 18/13° C. day/night temperature regime. Only the compounds of Examples 1, 6, 8, 11, 13 and 15-20 were included in PPI tests.
(§3) Approximately 14 days after planting and treating, the plants were observed and herbicidal efficacy recorded as percent inhibition by comparison with untreated plants.

POROL (common purslane) = assay: as above; assay type: in vivo, Portulaca oleracea; settings: GR80 = lowest tested rate with 80% or greater inhibition, approx. 14 days after treating, 30/21° C.
Method: as §1, §2, §3

[2] = system: CIRAR (canada thistle (seedling)); assay: as above; assay type: in vivo, Cirsium arvense; settings: GR80 = lowest tested rate with 80% or greater inhibition, approx. 14 days after treating, 30/21° C.
Method: as §1, §2, §3

ABUTH (velvetleaf) = assay: Pre-emergence herbicidal activity, warm season; assay type: in vivo, Abutilon theophrasti; settings: for Pre-emergence activity (GR80) ABUTH: GR80 = lowest tested rate (300, 100, 30, 10 g/ha) with 80% or greater inhibition, approx. 14 days after treating, 30/21° C.
Summary of the method: (§4)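 GR80 values derive from percent inhibition relative to untreated plants, read roughly 14 days after sowing and pre-emergence soil-surface treatment (compound in 50:50 acetone/water; rates typically 10, 30, 100, 300 g/ha). Warm-season weeds grew at 30/21° C day/night, cool-season ones at 18/13° C; an asterisk marks activity without reaching 80% at the highest rate.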

BROTE (downy brome) = assay: Pre-emergence herbicidal activity, cool season; assay type: in vivo, Bromus tectorum; settings: GR80 = lowest tested rate (300, 100, 30, 10 g/ha) with 80% or greater inhibition; approx. 14 days after treating; 18/13° C.
Summary of the method: as §4

KCHSC (kochia) = assay: Pre-plant incorporated (PPI) herbicidal activity, cool season; assay type: in vivo, Kochia scoparia; settings: for PPI activity GR80, KCHSC: pre-plant incorporated, lowest tested rate with 80% or greater inhibition, about 14 days; for inhibition at 10 g/ha / inhibition at 30 g/ha / inhibition at 100 g/ha / inhibition at 300 g/ha / inhibition at 900 g/ha: Bassia scoparia, weed, PPI application, read-out: Percent inhibition KCHSC
Method: as §1, §2, §3

CONAR (field bindweed) [3] = assay: Pre-emergence herbicidal activity, warm season; assay type: in vivo, Convolvulus arvensis; settings: GR80 = lowest tested rate (300, 100, 30, 10 g/ha) with 80% or greater inhibition; approx. 14 days after treating; 30/21° C.
Summary of the method: as §4

[4] = system: AGRRE (quackgrass (seedling)); assay: Pre-emergence herbicidal activity, cool season; assay type: in vivo, Elymus repens; settings: GR80 = lowest tested rate (300, 100, 30, 10 g/ha) with 80% or greater inhibition; approx. 14 days after treating; 18/13° C.
Summary of the method: as §4

LOLMG (annual ryegrass) = assay: Pre-emergence herbicidal activity, cool season; assay type: in vivo, Lolium multiflorum; settings: GR80 = lowest tested rate (300, 100, 30, 10 g/ha) with 80% or greater inhibition; approx. 14 days after treating; 18/13° C.
Summary of the method: as §4

| SMILES | Post-emergence activity GR80, ALOMY (ALOMY (blackgrass)) | PPI activity (GR80) CONAR (CONAR (field bindweed) [1]) | PPI activity (GR80) POROL (POROL (common purslane)) [g/ha] | PPI activity (GR80) CIRAR [2] [g/ha] | Pre-emergence activity (GR80) ABUTH (ABUTH (velvetleaf)) | Pre-emergence activity (GR80) BROTE (BROTE (downy brome)) | PPI activity GR80, KCHSC (KCHSC (kochia)) | Pre-emergence activity (GR80) CONAR (CONAR (field bindweed) [3]) | Pre-emergence activity (GR80) AGRRE [4] | inhibition at 10 g/ha (ABUTH (velvetleaf); Abutilon theophrasti, pre-emergence application, 10 g/ha, read-out: Percent inhibition, weed ABUTH) [%] | inhibition at 30 g/ha (ABUTH (velvetleaf); Abutilon theophrasti, pre-emergence application, 30 g/ha, read-out: Percent inhibition, weed ABUTH) [%] | inhibition at 100 g/ha (ABUTH (velvetleaf); Abutilon theophrasti, pre-emergence application, 100 g/ha, read-out: Percent inhibition, weed ABUTH) [%] | inhibition at 300 g/ha (ABUTH (velvetleaf); Abutilon theophrasti, pre-emergence application, 300 g/ha, read-out: Percent inhibition, weed ABUTH) [%] | inhibition at 900 g/ha (ABUTH (velvetleaf); Abutilon theophrasti, pre-emergence application, 900 g/ha, read-out: Percent inhibition, weed ABUTH) [%] | Pre-emergence activity (GR80) LOLMG (LOLMG (annual ryegrass)) [g/ha] | inhibition at 10 g/ha (KCHSC (kochia)) [%] | inhibition at 30 g/ha (KCHSC (kochia)) [%] | inhibition at 100 g/ha (KCHSC (kochia)) [%] | inhibition at 300 g/ha (KCHSC (kochia)) [%] | inhibition at 900 g/ha (KCHSC (kochia)) [%] |
| --- | --- | --- | --- | --- | --- | --- | --- | --- | --- | --- | --- | --- | --- | --- | --- | --- | --- | --- | --- | --- |
| CCN(CC)C(=O)n1cnc(S(=O)(=O)C(F)(F)SCc2ccccc2)n1 [Example 10] | [empty] | – | – | – | – | – | – | – | – | – | – | – | – | – | – | – | – | – | – | – |
| CCN(CC)C(=O)n1cnc(S(=O)(=O)C(F)(F)SCC(=O)OC)n1 [Example 11] | [empty] | 100 g/ha | 300 | 100 | – | – | – | – | – | – | – | – | – | – | – | – | – | – | – | – |
| CCN(CC)C(=O)n1cnc(S(=O)(=O)C(F)(F)SCCOC)n1 [Example 13] | [empty] | * (activity observed, at least at highest rate, but <80% inhibition) | 100 | 100 | 300 g/ha | 300 g/ha | * (activity observed, at least at highest rate, but <80% inhibition) | – | – | – | – | – | – | – | – | – | – | – | – | – |
| CCN(CC)C(=O)n1cnc(S(=O)(=O)C(F)(F)C(F)(F)SC)n1 [Example 14] | [empty] | – | – | – | – | – | – | * (activity observed, at least at highest rate, but <80% inhibition) | * (activity observed, at least at highest rate, but <80% inhibition) | – | – | – | – | – | – | – | – | – | – | – |
| CCN(CC)C(=O)n1cnc(S(=O)(=O)C(F)F)n1 [Example 15, 1-(N,N-diethylcarbamoyl)-3-(difluoromethylsulfonyl)-1,2,4-triazole] | [empty] | * (activity observed, at least at highest rate, but <80% inhibition) | 100 | 100 | 300 g/ha | – | 100 g/ha | – | – | 0 | 0 | 0 | 0 | 0 | – | – | – | – | – | – |
| CCN(CC)C(=O)n1cnc(S(=O)(=O)C(F)(F)C(F)F)n1 [Example 16] | – | 100 g/ha | 10 | 30 | 300 g/ha | – | 30 g/ha | 300 g/ha | * (activity observed, at least at highest rate, but <80% inhibition) | – | – | – | – | – | 300 | – | – | – | – | – |
| C=CCC(F)(F)S(=O)(=O)c1ncn(C(=O)N(CC)CC)n1 [Example 17, 1-(N,N-diethylcarbamoyl)-3-[(1,1-difluoro-3-butenyl)sulfonyl]-1,2,4-triazole] | [empty] | * (activity observed, at least at highest rate, but <80% inhibition) | 30 | 300 | 300 g/ha | 100 g/ha | 30 g/ha | – | – | – | – | – | – | – | 100 | 70 | 100 | 100 | 100 | 100 |
| C=C(C)CC(F)(F)S(=O)(=O)c1ncn(C(=O)N(CC)CC)n1 [Example 18] | [empty] | 100 g/ha | 100 | 30 | * (activity observed, at least at highest rate, but <80% inhibition) | 300 g/ha | – | – | 300 g/ha | – | – | – | – | – | 300 | 40 | 80 | 80 | 100 | 100 |
| C=C(Br)CC(F)(F)S(=O)(=O)c1ncn(C(=O)N(CC)CC)n1 [Example 19] | [empty] | 300 g/ha | 100 | 300 | – | * (activity observed, at least at highest rate, but <80% inhibition) | – | * (activity observed, at least at highest rate, but <80% inhibition) | * (activity observed, at least at highest rate, but <80% inhibition) | – | – | – | – | – | 300 | 0 | 20 | 80 | 80 | 100 |
